The target in test [1] is T1, NPR-10B (Caenorhabditis elegans, UniProt Q6EUU1).
T1 sequence (Q6EUU1 1-362): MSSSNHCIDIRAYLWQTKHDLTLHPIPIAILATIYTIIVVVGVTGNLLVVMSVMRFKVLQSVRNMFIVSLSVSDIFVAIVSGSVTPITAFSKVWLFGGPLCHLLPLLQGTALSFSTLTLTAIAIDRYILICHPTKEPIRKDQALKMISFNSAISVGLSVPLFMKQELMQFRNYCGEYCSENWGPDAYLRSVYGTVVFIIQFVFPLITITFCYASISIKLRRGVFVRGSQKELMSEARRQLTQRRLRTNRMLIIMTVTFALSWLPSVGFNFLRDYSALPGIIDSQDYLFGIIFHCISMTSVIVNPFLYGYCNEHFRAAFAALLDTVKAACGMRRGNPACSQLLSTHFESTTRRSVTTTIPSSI
In words: In vitro GPCR activation assay (CHO-K1 cells, aequorin, human Gα16), NPR-10B. Type of test: cell-based, C. elegans. The following applies: for activation of NPR-10 (NPR-10B): in words; for EC50: title: NPR-10B, calcium/aequorin luminescence in transfected CHO-K1 cells. As for the experimental part:
Using Chinese hamster ovarian (CHO) cell cultures stably expressing the promiscuous G protein, Gα16, and the calcium reporter, aequorin, it was observed that both isoforms of NPR-10 are activated by seven of the ten FLP-3 peptides, with half-maximal effective concentrations (EC50) in the nM range (FIG. 14A-FIG. 14H, Table V). […] This peptide contains an R-to-K mutation within the C-terminal motif, which may explain the lack of receptor activation.
(§1) The GPCR activation assay was performed as previously described Van Sinay, E. et al. Proc. Natl Acad. Sci. USA 114, E4065-e4074 (2017) and Peymen, K. et al. PLoS Genet. 15, e1007945 (2019). Briefly, npr-10 and frpr-16 cDNAs were cloned into the pcDNA3.1 TOPO expression vector (Thermo Fisher Scientific). A CHO-K1 cell line (PerkinElmer, ES-000-A24) stably expressing apo-aequorin targeted to the mitochondria (mtAEQ) and human Gα16 was transiently transfected with the receptor cDNA construct or the empty pcDNA3.1 vector using Lipofectamine LTX and Plus reagent (Thermo Fisher Scientific). Cells were shifted to 28° C. one day later and allowed to incubate for 24 h. On the day of the assay, cells were collected in BSA medium (DMEM/Ham's F12 with 15 mM HEPES, without phenol red, 0.1% BSA) and loaded with […] coelenterazine h (Thermo Fisher Scientific) for 4 h at room temperature. The incubated cells were then added to synthetic peptides dissolved in DMEM/BSA, and luminescence was measured for 30 s at […] using a Mithras LB940 (Berthold Technologies) or MicroBeta LumiJet luminometer (PerkinElmer). After 30 s of readout, 0.1% triton X-100 was added to lyse the cells, resulting in a maximal calcium response that was measured for 10 s. After initial screening, concentration-response curves were constructed for HPLC-purified FLP-3 peptides by subjecting the transfected cells to each peptide in a concentration range from 1 pM to 10 μM. Cells transfected with an empty vector were used as a negative control. Assays were performed in triplicate on at least two independent days. Concentration-response curves were fitted using Prism v. 7 (nonlinear regression analysis with a sigmoidal concentration-response equation).

Test [2] has as its target T2, FRPR-16 (Caenorhabditis elegans, UniProt Q21957).
T2 sequence (Q21957 1-340): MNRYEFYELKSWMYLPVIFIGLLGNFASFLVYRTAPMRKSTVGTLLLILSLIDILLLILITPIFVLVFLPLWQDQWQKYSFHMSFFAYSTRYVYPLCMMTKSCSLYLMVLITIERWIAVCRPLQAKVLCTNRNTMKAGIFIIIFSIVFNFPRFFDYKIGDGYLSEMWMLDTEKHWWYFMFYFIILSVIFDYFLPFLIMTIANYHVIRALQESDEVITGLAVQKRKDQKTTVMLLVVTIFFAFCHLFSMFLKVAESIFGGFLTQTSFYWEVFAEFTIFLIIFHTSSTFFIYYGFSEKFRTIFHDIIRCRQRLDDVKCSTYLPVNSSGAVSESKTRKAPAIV
Description: In vitro GPCR activation assay (CHO-K1 cells, aequorin, human Gα16), FRPR-16. It counts as cell-based, C. elegans. The settings on record: for activation of FRPR-16: in words; for EC50: calcium/aequorin luminescence in transfected CHO-K1 cells. As for the experimental part:
as §1

Test [3] deals with flp-3 lof males. Description: Drop avoidance assay to ascr #8 after FLP-3 peptide rescue-by-feeding. Type of test: in vivo, C. elegans. The settings on record: flp-3 lof males raised on peptide; 1 μM ascr #8; in words. On the procedure: To identify which FLP-3 peptides are required for male avoidance of ascr #8, a peptide feeding approach https://www.nature.com/articles/s42003-021-02547-7-ref-CR59 was adopted, similar to RNAi feeding (FIG. 16A). Using Gateway Cloning technology, FLP-3 peptide coding sequences were inserted into a bacterial expression vector. As a control, first the FLP-3 peptides were tested that are still encoded in the ok3625 allele which are insufficient to drive the proper ascr #8 response in vivo: FLP-3-1 (SPLGTMRFamide) (SEQ ID NO: 10) and FLP-3-4 (NPLGTMRFamide) (SEQ ID NO: 11). Then flp-3 lof animals were reared on lawns of bacteria expressing the rescue constructs, and their progeny were assayed for avoidance (FIG. 16B-FIG. 16D).
Assays were performed as described previously in Chute, C. D. & Srinivasan, J. Semin. Cell Dev. Biol. 33, 18-24 (2014); Chute, C. D. et al. Nat. Commun. 10, 3186 (2019); and Hilliard, M. A. et al., EMBO J. 23, 1101-1111 (2004). Fifty to sixty L4 worms were segregated by sex and stored at 20° C. for 5 h to overnight to be assayed as young adults. One to four hours prior to the assay, the lids of unseeded plates were tilted to allow any excess moisture to evaporate off the plates. At the time of the assay, 10 or more animals were transferred onto each of the dried, unseeded plates. A drop of either water or 1 μM ascr #8 was placed on the tail of forward moving animals, and their response was scored as either an avoidance response, or no response. The total number of avoidances was divided by the total number of drops to generate an avoidance index for that plate. This was repeated for at least 10 plates over at least three different days.
SCRAMBLE control or FLP-3 peptide constructs were grown overnight in LB media containing […] ampicillin at 37° C. and diluted to an OD600 of 1.0 prior to seeding on NGM plates containing […] ampicillin and 1 mM IPTG. The 75 μL lawn was left to dry and grow overnight at room temperature before three L4 animals were placed on the plates. Males were selected for testing in the same manner as described above but were isolated onto plates also seeded with the same peptide on which they had been reared. Animals were then assayed using either the avoidance assay or single worm assay.

The subject of test [4] is him-5 and pdf-1 males. In words: Excursion (food-leaving) assay after rescue-by-feeding. The settings on record: for PL (confidence interval): Probability of Leaving per hour, beyond 35 mm from food. It counts as in vivo, C. elegans. From the text: We quantified the behavioral activity of pdf-1 lof males using a food-leaving behavior as previously described. Individuals were placed on a small food spot, and track patterns were scored at three different time points (2, 6, 24 hrs) (FIG. 4A). “Never left food” indicate the absence of tracks outside the food spot. […] “Major excursion” indicates the presence of tracks past the 1 cm boundary (FIG. 1B, Excursion Assay). The food-leaving behavior was quantified as a measure of mate-searching behavior. In this behavior well-fed males left food in search of mates and the data is represented as a Probability of Leaving (PL) (FIG. 7A).
The mate searching behavior of pdf-1 mutants was quantified in a food leaving assay. him-5 animals were used as wild-type control to ensure the presence of males. him-5 and pdf-1 animals were fed OP50, scramble peptide, PDF-1A, PDF-1B, or a 1:1 mixture of PDF-1A and PDF-1B cultures. Four to six larval L4 hermaphrodites were passed onto an NGM plate containing […] AMP and 1 mM IPTG with 75 μL of peptide. These worms were grown at 20° C. for about 4 days until the male progeny of the initial L4 worms were young adults. The day prior to the assay, young adult male pdf-1 or him-5 worms were singled onto 60 mm plates containing lawns of either OP50 (NGM plates) or appropriate peptide cultures (NGM containing […] AMP and 1 mM IPTG). To determine the mate searching effects of pdf-1, we performed a food-leaving assay as described previously in Barrios, A., et al., Nat Neurosci 15, 1675-1682 (2012); Lipton, J., et al., The Journal of neuroscience: the official journal of the Society for Neuroscience 24, 7427-7434 (2004); Ryan, D. A. et al. Curr Biol 24, 2509-2517 (2014), with modifications. In this assay, individuals were placed on a small food spot, and track patterns were scored at the indicated times. Assay plates were prepared one day prior to assaying on 100 mm plates with 10 mL of Leaving Assay media (25 mM KPO4 (pH 6.0), 1 mM MgSO4, 1 mM CaCl2), 50 mM NaCl, 2.5 g/L Peptone, 17 g/L Agar). On center of plate, 7 μL of OP50 was added. Plates were lightly covered and stored at room temperature overnight (˜20° C., <40% humidity).
On the day of the assay, a single male was plated on the assay plate and placed in a dark, 20° C. incubator. At 2, 6, and 24 hours after the worms are plated, plates were scored for male worm tracks. Scored were separated into binned ranges. “Never left food” indicates the absence of tracks outside the food spot. […] “Major excursion” indicates the presence of tracks past the 1 cm boundary. The food leaving behavior was quantified at three different time points (2, 6, and 24 hours). (FIG. 4A, FIG. 7A, Table IV).
The mate searching defect of pdf-1 was quantified as a Probability of Leaving per hour (PL) (FIG. 4B, FIG. 7B).
The assay was performed across at least two days per condition, with at least n=50, wherein each assay plate with one male is equal to n=1. In all experiments, the investigators were blinded to genotype. Worm in the >35 mm from the center of food bin were scored as “leavers”. The probability of leaving per hour (Probability of Leaving (PL)) was calculated using an R script developed in Barrios et al., with assistance by (Personal Communications to Barrios, 2020). PL was calculated by the “hazard obtained by fitting an exponential parametric survival model to the censored data using maximum likelihood” (Table IV). The PLh-1 values for all pdf-1 animals fed scramble or peptide rescue were compared to him-5 worms fed scramble using an ANOVA followed by Bonferroni's multiple comparison (FIG. 4B, FIG. 7C).

The values that follow come from US20220380430A1, “Non-Transgenic Functional Rescue of Neuropeptides” (Worcester Polytechnic Institute, priority 2021, published 2022).

Entries after “also recorded” stand apart in the source; their conditions may differ. No end group written: not given here.

Consider STVDSSEPVIRDQ [FLP-3-10], for which the “activation of NPR-10 (NPR-10B)” value in test [1] was “failed to activate the receptor; also recorded: did not activate either receptor”. Further, in test [2], the “activation of FRPR-16” value is reported as “did not activate FRPR-16; also recorded: did not activate either receptor”. Also, the “rescue of avoidance phenotype to ascr #8 (Avoidance Index)” value (shortened to “rescue … (Avoidance Index)”) in test [3] is recorded as “unable to rescue the avoidance phenotype”.

As usually defined, the EC50 is the midpoint of the concentration-response curve. For SPLGTMRF-NH2 [FLP-3-1, SPLGTMRFamide], the figures for the EC50 in test [1] and in test [2] were 262 nM and 7.4 nM, respectively. In test [3], the “rescue … (Avoidance Index)” value was “unable to rescue the avoidance phenotype on their own”.

With “SAEPFGTMRF-NH2 [FLP-3-7, SAEPFGTMRFamide]”, the EC50 in test [1] came to 439 nM; in test [2], 39.5 nM.

With “ASEDALFGTMRF-NH2 [FLP-3-5, ASEDALFGTMRFamide]”, the EC50 is 1100 nM in test [1] and 72.1 nM in test [2].

Consider “EDGNAPFGTMKFamide (EDGNAPFGTMKF-NH2) [FLP-3-6]”, for which the “activation of NPR-10 (NPR-10B)” value in test [1] is listed as “did not activate NPR-10; also recorded: did not activate either receptor”. Also, the “activation of FRPR-16” value in test [2] is listed as “did not activate FRPR-16; also recorded: did not activate either receptor”.

For SNAELINGLLSMNLNKLSGAG-NH2 [PDF-1B], the “PL (confidence interval)” value in test [4] (him-5 males) is given as 0.08712 (0.0754, 0.1007); in test [4] (pdf-1 males), 0.05821 (0.04761, 0.07118). Moreover, in test [4] (pdf-1 lof males fed peptide), the “Probability of Leaving, comparison in words” value is “significantly different PL from pdf-1 males fed PDF-1A alone”. Further, the “rescue of food-leaving behavior (percent of males leaving food)” value in test [4] (pdf-1 lof males, 2, 6, 24 hrs) is listed as “complete rescue of food-leaving behavior”.

As to NPLGTMRF-NH2 [FLP-3-4, NPLGTMRFamide], the results for the EC50 in test [1] and in test [2] were 427 nM and 10.7 nM, respectively. For the same substance, the “rescue … (Avoidance Index)” value in test [3] was “unable to rescue the avoidance phenotype on their own”.

With SNAELINGLIGMDLGKLSAVG-NH2 [PDF-1A], the “PL (confidence interval)” value in test [4] (him-5 males) is 0.06979 (0.05892, 0.08269); in test [4] (pdf-1 males), 0.03287 (0.02657, 0.04224).

Take “EAEEPLGTMRF-NH2 [FLP-3-3, EAEEPLGTMRFamide]”: the EC50 in test [1] is 867 nM; in test [2], 288 nM.
